Data reported in the supplement of paper PMC5908809.

Legend:
[1] = system: normal primary NK cells, pool 3 (3 donors) (IL-2 2.5 ng/mL); assay: percent inhibition of viability; higher = more inhibition; details: 72 h
[2] = system: YT (IL-2 2.5 ng/mL); assay: as above; details: 72 h
[3] = system: NK-YS (IL-2 2.5 ng/mL); assay: as above; details: 72 h
[4] = system: KHYG-1 (IL-2 2.5 ng/mL); assay: as above; details: 72 h
[5] = system: normal primary NK cells, pool 1 (3 donors), resting (IL-2 0 ng/mL); assay: as above; details: 72 h
[6] = system: KAI3 (IL-2 2.5 ng/mL); assay: as above; details: 72 h
[7] = system: NK-92 (IL-2 2.5 ng/mL); assay: as above; details: 72 h
[8] = system: NKL (IL-2 2.5 ng/mL); assay: as above; details: 72 h
[9] = system: normal primary NK cells, pool 2 (3 donors) (IL-2 2.5 ng/mL); assay: as above; details: 72 h
[10] = system: DERL-7 (IL-2 2.5 ng/mL); assay: as above; details: 72 h
[11] = system: SNK-6 (IL-2 2.5 ng/mL); assay: as above; details: 72 h
[12] = system: normal primary NK cells, pool 1 (3 donors) (IL-2 2.5 ng/mL); assay: as above; details: 72 h
[13] = system: IMC-1 (IL-2 20 ng/mL); assay: as above; details: 72 h
[14] = system: normal NK cells expanded with K562-aAPC; assay: drug sensitivity score (DSS) (DSS units); higher = more sensitive; extreme values may be limits of the assay; details: 72 h; IL-2 2.5 ng/mL
Protocol: (§1)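 Drug sensitivity and resistance testing on K562-aAPC-expanded normal NK cells: 5 concentrations (10-fold steps over a 10,000-fold range), 72 h at 37 °C, viability by CellTiter-Glo normalised to DMSO and benzethonium chloride controls; DSS from the fitted curve.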

[15] = system: normal primary NK cells, pool 3 (3 donors) (IL-2 2.5 ng/mL); assay: as above; details: 72 h
[16] = system: YT (IL-2 2.5 ng/mL); assay: as above; details: 72 h
[17] = system: NK-YS (IL-2 2.5 ng/mL); assay: as above; details: 72 h
[18] = system: KHYG-1 (IL-2 2.5 ng/mL); assay: as above; details: 72 h
[19] = system: normal primary NK cells, pool 1 (3 donors), resting (IL-2 0 ng/mL); assay: as above; details: 72 h
[20] = system: KAI3 (IL-2 2.5 ng/mL); assay: as above; details: 72 h
[21] = system: NK-92 (IL-2 2.5 ng/mL); assay: as above; details: 72 h
[22] = system: NKL (IL-2 2.5 ng/mL); assay: as above; details: 72 h
[23] = system: normal primary NK cells, pool 2 (3 donors) (IL-2 2.5 ng/mL); assay: as above; details: 72 h
[24] = system: DERL-7 (IL-2 2.5 ng/mL); assay: as above; details: 72 h
[25] = system: SNK-6 (IL-2 2.5 ng/mL); assay: as above; details: 72 h
[26] = system: normal primary NK cells, pool 1 (3 donors) (IL-2 2.5 ng/mL); assay: as above; details: 72 h
[27] = system: IMC-1 (IL-2 20 ng/mL); assay: as above; details: 72 h
[28] = system: normal NK cells expanded with K562-aAPC; assay: percent inhibition of viability; higher = more inhibition; details: 72 h, IL-2 2.5 ng/mL
Protocol: as §1

Cc1cc(C)c(/C=C2\C(=O)Nc3ccccc32)[nH]1 [Semaxanib] (max concentration tested 10000 nM)
percent inhibition of viability [%]
Details	1 nM	10 nM	100 nM	1000 nM	10000 nM
[1]	-10.1	-7.93	-13.2	-15.4	-11
[2]	1.76	-2.52	0.26	5.87	-1.2
[3]	-0.44	2.71	2.82	11.1	7.36
[4]	-1.36	0.11	0.12	6.34	1.2
[5]	-26.7	-24.9	-16.6	-29.6	-4.81
[6]	-2.48	-0.88	2.8	17.6	4.62
[7]	-9.95	-0.12	2.69	-5.85	-9.23
[8]	-13.9	-12.4	-11.4	-6.8	-21.5
[9]	-8.9	-5	-12.5	-15.6	0.7
[10]	-12.8	-10.6	-9.72	-14.2	-12.3
[11]	11.5	16.6	-2.4	-25	-71.7
[12]	-10.6	-9.74	-0.67	-9.25	-0.4
[13]	-3.23	1.84	-5.66	-0.69	-8.53
[28]	-3.94	-4.89	-0.87	-2.28	-6.44

Details	drug sensitivity score
[14]	0
[15]	0
[16]	0
[17]	0.03
[18]	0
[19]	0
[20]	0.08
[21]	0
[22]	0
[23]	0
[24]	0
[25]	0
[26]	0
[27]	0

c1ccc2c(CCNc3ccc(Nc4ccncc4)cc3)c[nH]c2c1 [Serdemetan] (max concentration tested 10000 nM)
percent inhibition of viability [%]
Details	1 nM	10 nM	100 nM	1000 nM	10000 nM
[1]	-9.21	-2.68	-1.24	41.2	98.2
[2]	-0.01	-0.09	2.11	16.2	89.5
[3]	-3.94	-6.06	-3.31	54.3	93.6
[4]	-4.53	-3.7	-1.91	20.5	94.6
[5]	-1.96	-20.5	-16.5	78.3	90.8
[6]	1.77	-7.13	13.3	71.7	96.4
[7]	-2.5	-9.68	-24.1	16.9	89.1
[8]	-4.48	-6.86	12.5	103	96.3
[9]	-12.5	-4.95	-4.4	34	94.8
[10]	1.57	3.06	5.72	93	99.8
[11]	1.74	-8.4	-40.5	2.69	97.8
[12]	-2.89	-12	-5.86	54.6	98
[13]	-3.43	-4.48	-1.24	6.25	86.2
[28]	3.3	-0.88	-3.23	41.7	99.6

Details	drug sensitivity score
[14]	11
[15]	10.8
[16]	7.62
[17]	11.7
[18]	8.49
[19]	14
[20]	15.1
[21]	7.67
[22]	20.1
[23]	9.95
[24]	17.7
[25]	5.77
[26]	12
[27]	5.74

CC(C)(O)CC(=O)NCCn1ccc2ncnc(Nc3ccc(Oc4cccc(C(F)(F)F)c4)c(Cl)c3)c21 [TAK-285] (max concentration tested 2500 nM)
percent inhibition of viability [%]
Details	0.25 nM	2.5 nM	25 nM	250 nM	2500 nM
[1]	-5.51	-2.63	-4.05	-8.03	-14.8
[2]	0.86	-3.2	0.37	1.42	-3.68
[3]	-1.3	-5.16	-2.82	0.41	-0.02
[4]	-0.17	-1.01	-1.95	2.13	-6.23
[5]	-19.2	-12	10	5.74	6.13
[6]	3.24	6.26	-7.58	2.41	-4.47
[7]	3.91	-1.52	-0.33	10.9	11.6
[8]	-13.2	-11.7	-12.7	-16.1	-29.3
[9]	-6.38	-6.44	-5.09	-7.05	-6.29
[10]	0.57	-0.5	-0.21	-6.99	3.24
[11]	5.49	3.7	-2.84	-9.96	-12.5
[12]	-5.45	-7.93	-3.5	-0.56	2.32
[13]	-2.98	-2.02	-5.78	-4.36	-2.28
[28]	-3.9	-5.59	-4.49	-4.65	-10.5

Details	drug sensitivity score
[14]	0.89
[15]	0.89
[16]	0
[17]	0
[18]	0
[19]	0.01
[20]	0
[21]	0.37
[22]	0.89
[23]	0.89
[24]	0
[25]	0
[26]	0
[27]	0.89

Nc1nc(N)c2nc(-c3cccc(O)c3)c(-c3cccc(O)c3)nc2n1 [TG100-115] (max concentration tested 10000 nM)
percent inhibition of viability [%]
Details	1 nM	10 nM	100 nM	1000 nM	10000 nM
[1]	-6.73	-4.4	7.77	-1.79	13.7
[2]	1.25	2.49	4.53	4.76	12.3
[3]	-1.11	-1.59	0.64	4.73	8.38
[4]	0.48	4.75	4.43	9.36	24.5
[5]	0.41	-21.8	-6.01	-19	16.1
[6]	-5.91	4.12	-4.09	-1.44	13.4
[7]	-2.65	1.92	7.95	3.09	17.8
[8]	-7.69	-0.08	0.45	6.08	27.7
[9]	-11.3	-4.42	12.3	5.35	21.7
[10]	-6.88	-4.08	5.03	-4.31	3.35
[11]	0.36	13.3	17.1	53.8	39
[12]	6.61	-12.2	-0.36	-3.46	18.8
[13]	-0.94	5.84	4.32	14.9	34.2
[28]	-2.77	-3.08	0.07	6.14	26.9

Details	drug sensitivity score
[14]	2.01
[15]	0.09
[16]	0
[17]	0
[18]	1.47
[19]	0.1
[20]	0
[21]	0.35
[22]	2.07
[23]	1.02
[24]	0
[25]	10.8
[26]	0.36
[27]	2.97

C=CCNC1=C2C[C@@H](C)C[C@H](OC)[C@H](O)[C@@H](C)/C=C(\C)[C@H](OC(N)=O)[C@@H](OC)/C=C\C=C(/C)C(=O)NC(=CC1=O)C2=O [Tanespimycin] (max concentration tested 10000 nM)
percent inhibition of viability [%]
Details	1 nM	10 nM	100 nM	1000 nM	10000 nM
[1]	-2.89	-1.44	15.4	76.7	89.1
[2]	-5.76	-8.38	13.2	94.7	101
[3]	-3.46	-0.46	63.4	103	105
[4]	-4.47	0.32	7.33	103	106
[5]	-6.62	18.1	28.8	51.2	69.4
[6]	0.55	5.14	60.9	104	105
[7]	-11.8	-0.27	37.7	99.1	100
[8]	-8.98	-11.1	73.2	91.9	91.2
[9]	-2.56	2.25	36.4	80	85.7
[10]	0.9	-1.85	35.9	101	101
[11]	3.74	-19.1	41.6	87.7	89.8
[12]	1.58	12.9	49.5	87.4	92.3
[13]	-1.67	0.76	3.61	99.8	101
[28]	-6.12	-2.4	32.3	99.3	100

Details	drug sensitivity score
[14]	22.6
[15]	16
[16]	19.1
[17]	25.4
[18]	19.3
[19]	14
[20]	25.3
[21]	23.1
[22]	25
[23]	19.2
[24]	23
[25]	21.6
[26]	22.4
[27]	18.4
